SMILES strings stand for the structures.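 Following 48 hours of exposure in 96-well plates, responses at five concentrations were used to interpolate endpoints linearly. TGI is the concentration that stops growth completely.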

In one test the test system is HT29 colon. Nature of the test: NCI anticancer screen, dose series, 48 h.
Regarding `O=S1(=O)c2cnccc2NC(=NCc2cccc3ccccc23)N1c1ccccc1`, the TGI is above 100 µM.

Molecule `C[C@@]12C=CC3C/C(=N\C(N)=S)C=C(CCCC4OCCO4)[C@]3(CC1)C2` (stereo not given in full) returned a TGI of 25.4 µM.

Regarding `CCCCCC(=O)Nc1n[nH]nc1C(N)=O`, the TGI is above 100 µM.

For the molecule `NC(=O)C(Nc1c(Cl)cccc1Cl)c1cc2cc(Br)ccc2nc1Cl` (stereo not given), the TGI is above 100 µM.

The molecule `COc1ccc(Br)c2c1CC(C(=O)O)CC2` (stereo not given) gave a TGI above 100 µM.

Molecule `C/C(=N\N)C(CN(C)C)C(c1ccccc1)c1c(O)c2ccccc2oc1=O` (stereo not given) registered a TGI above 100 µM.

For `COc1ccc(/C=C2/C(C)=NN(c3cccc(Cl)c3)/C2=N/c2nc3ccccc3s2)cc1`, the TGI turned out to be 37.8 µM.

Molecule `Fc1cc(C2=C[C@H](c3ccc(Cl)cc3)NC(=S)N2)c(Cl)cc1Cl` returned a TGI above 100 µM.

With `CCCCc1ccc(Nc2nc(Cl)c3c(ncn3COCCOC(C)=O)n2)cc1`, the TGI was determined as 34.9 µM.

The subject of another test is EKVX NSCLC. Put plainly: NCI anticancer screen, dose series, 48 h.
`O=S1(=O)c2cnccc2NC(=NCc2cccc3ccccc23)N1c1ccccc1` returned a TGI above 100 µM.

With `C[C@@]12C=CC3C/C(=N\C(N)=S)C=C(CCCC4OCCO4)[C@]3(CC1)C2` (stereo not given in full), the TGI amounted to 40.6 µM.

In turn, `CCCCCC(=O)Nc1n[nH]nc1C(N)=O` gave a TGI above 100 µM.

In turn, `NC(=O)C(Nc1c(Cl)cccc1Cl)c1cc2cc(Br)ccc2nc1Cl` (stereo not given) displayed a TGI above 100 µM.

Molecule `COc1ccc(Br)c2c1CC(C(=O)O)CC2` (stereo not given) had a TGI above 100 µM.

With `C/C(=N\N)C(CN(C)C)C(c1ccccc1)c1c(O)c2ccccc2oc1=O` (stereo not given), the TGI was above 100 µM.

Molecule `COc1ccc(/C=C2/C(C)=NN(c3cccc(Cl)c3)/C2=N/c2nc3ccccc3s2)cc1` returned a TGI of 83.1 µM.

Molecule `Fc1cc(C2=C[C@H](c3ccc(Cl)cc3)NC(=S)N2)c(Cl)cc1Cl` returned a TGI above 100 µM.

Regarding `CCCCc1ccc(Nc2nc(Cl)c3c(ncn3COCCOC(C)=O)n2)cc1`, the TGI worked out at 37.1 µM.

Another test deals with TK-10 renal. Nature of the test: NCI anticancer screen, dose series, 48 h.
Take `O=S1(=O)c2cnccc2NC(=NCc2cccc3ccccc23)N1c1ccccc1`: the TGI was above 100 µM.

The molecule `C[C@@]12C=CC3C/C(=N\C(N)=S)C=C(CCCC4OCCO4)[C@]3(CC1)C2` (stereo not given in full) gave a TGI of 49.4 µM.

Regarding `CCCCCC(=O)Nc1n[nH]nc1C(N)=O`, the TGI was above 100 µM.

In turn, `NC(=O)C(Nc1c(Cl)cccc1Cl)c1cc2cc(Br)ccc2nc1Cl` (stereo not given) displayed a TGI of 96.3 µM.

Molecule `COc1ccc(Br)c2c1CC(C(=O)O)CC2` (stereo not given) registered a TGI above 100 µM.

Molecule `C/C(=N\N)C(CN(C)C)C(c1ccccc1)c1c(O)c2ccccc2oc1=O` (stereo not given) registered a TGI above 100 µM.

Turning to `COc1ccc(/C=C2/C(C)=NN(c3cccc(Cl)c3)/C2=N/c2nc3ccccc3s2)cc1`, the TGI is 68.8 µM.

For the molecule `Fc1cc(C2=C[C@H](c3ccc(Cl)cc3)NC(=S)N2)c(Cl)cc1Cl`, the TGI is above 100 µM.

Regarding `CCCCc1ccc(Nc2nc(Cl)c3c(ncn3COCCOC(C)=O)n2)cc1`, the TGI is 41.8 µM.

A further test has as its system OVCAR-3 ovarian. Put plainly: NCI anticancer screen, dose series, 48 h.
For the molecule `O=S1(=O)c2cnccc2NC(=NCc2cccc3ccccc23)N1c1ccccc1`, the TGI is above 100 µM.

In the case of `C[C@@]12C=CC3C/C(=N\C(N)=S)C=C(CCCC4OCCO4)[C@]3(CC1)C2` (stereo not given in full), the TGI was found to be 39.3 µM.

Turning to `CCCCCC(=O)Nc1n[nH]nc1C(N)=O`, the TGI is above 100 µM.

In turn, `NC(=O)C(Nc1c(Cl)cccc1Cl)c1cc2cc(Br)ccc2nc1Cl` (stereo not given) came in with a TGI above 100 µM.

Molecule `COc1ccc(Br)c2c1CC(C(=O)O)CC2` (stereo not given) registered a TGI above 100 µM.

`C/C(=N\N)C(CN(C)C)C(c1ccccc1)c1c(O)c2ccccc2oc1=O` (stereo not given) gave a TGI above 100 µM.

In the case of `COc1ccc(/C=C2/C(C)=NN(c3cccc(Cl)c3)/C2=N/c2nc3ccccc3s2)cc1`, the TGI amounted to 48.8 µM.

With `Fc1cc(C2=C[C@H](c3ccc(Cl)cc3)NC(=S)N2)c(Cl)cc1Cl`, the TGI was above 100 µM.

`CCCCc1ccc(Nc2nc(Cl)c3c(ncn3COCCOC(C)=O)n2)cc1` gave a TGI of 43.8 µM.

For another test, the system named is NCI-H522 lung. Nature of the test: NCI anticancer screen, dose series, 48 h.
Turning to `O=S1(=O)c2cnccc2NC(=NCc2cccc3ccccc23)N1c1ccccc1`, the TGI was above 100 µM.

In turn, `C[C@@]12C=CC3C/C(=N\C(N)=S)C=C(CCCC4OCCO4)[C@]3(CC1)C2` (stereo not given in full) registered a TGI of 22.9 µM.

The molecule `CCCCCC(=O)Nc1n[nH]nc1C(N)=O` had a TGI above 100 µM.

In turn, `NC(=O)C(Nc1c(Cl)cccc1Cl)c1cc2cc(Br)ccc2nc1Cl` (stereo not given) yielded a TGI above 100 µM.

In turn, `COc1ccc(Br)c2c1CC(C(=O)O)CC2` (stereo not given) registered a TGI above 100 µM.

On to `C/C(=N\N)C(CN(C)C)C(c1ccccc1)c1c(O)c2ccccc2oc1=O` (stereo not given), for which the TGI is above 100 µM.

Turning to `COc1ccc(/C=C2/C(C)=NN(c3cccc(Cl)c3)/C2=N/c2nc3ccccc3s2)cc1`, the TGI is 35.2 µM.

For the molecule `Fc1cc(C2=C[C@H](c3ccc(Cl)cc3)NC(=S)N2)c(Cl)cc1Cl`, the TGI is above 100 µM.

`CCCCc1ccc(Nc2nc(Cl)c3c(ncn3COCCOC(C)=O)n2)cc1` yielded a TGI of 33.4 µM.

The next test relates to NCI-H226 lung. Put plainly: NCI anticancer screen, dose series, 48 h.
On to `O=S1(=O)c2cnccc2NC(=NCc2cccc3ccccc23)N1c1ccccc1`, for which the TGI is above 100 µM.

In the case of `C[C@@]12C=CC3C/C(=N\C(N)=S)C=C(CCCC4OCCO4)[C@]3(CC1)C2` (stereo not given in full), the TGI amounted to 55 µM.

`CCCCCC(=O)Nc1n[nH]nc1C(N)=O`: the TGI was above 100 µM.

`NC(=O)C(Nc1c(Cl)cccc1Cl)c1cc2cc(Br)ccc2nc1Cl` (stereo not given) came in with a TGI above 100 µM.

`COc1ccc(Br)c2c1CC(C(=O)O)CC2` (stereo not given) had a TGI above 100 µM.

Consider `C/C(=N\N)C(CN(C)C)C(c1ccccc1)c1c(O)c2ccccc2oc1=O` (stereo not given), for which the TGI was above 100 µM.

As for `COc1ccc(/C=C2/C(C)=NN(c3cccc(Cl)c3)/C2=N/c2nc3ccccc3s2)cc1`, the TGI was 56.4 µM.

In the case of `Fc1cc(C2=C[C@H](c3ccc(Cl)cc3)NC(=S)N2)c(Cl)cc1Cl`, the TGI was above 100 µM.

Consider `CCCCc1ccc(Nc2nc(Cl)c3c(ncn3COCCOC(C)=O)n2)cc1`, for which the TGI came to 40.6 µM.

The test system of a further test is UO-31 renal. Nature of the test: NCI anticancer screen, dose series, 48 h.
`O=S1(=O)c2cnccc2NC(=NCc2cccc3ccccc23)N1c1ccccc1`: the TGI is above 100 µM.

As for `C[C@@]12C=CC3C/C(=N\C(N)=S)C=C(CCCC4OCCO4)[C@]3(CC1)C2` (stereo not given in full), the TGI came out at 38.9 µM.

Molecule `CCCCCC(=O)Nc1n[nH]nc1C(N)=O` returned a TGI above 100 µM.

With `NC(=O)C(Nc1c(Cl)cccc1Cl)c1cc2cc(Br)ccc2nc1Cl` (stereo not given), the TGI was above 100 µM.

`COc1ccc(Br)c2c1CC(C(=O)O)CC2` (stereo not given): the TGI is above 100 µM.

As for `C/C(=N\N)C(CN(C)C)C(c1ccccc1)c1c(O)c2ccccc2oc1=O` (stereo not given), the TGI was above 100 µM.

`COc1ccc(/C=C2/C(C)=NN(c3cccc(Cl)c3)/C2=N/c2nc3ccccc3s2)cc1` displayed a TGI of 44.1 µM.

For the molecule `Fc1cc(C2=C[C@H](c3ccc(Cl)cc3)NC(=S)N2)c(Cl)cc1Cl`, the TGI is above 100 µM.

With `CCCCc1ccc(Nc2nc(Cl)c3c(ncn3COCCOC(C)=O)n2)cc1`, the TGI came out at 33.7 µM.

Another test deals with CAKI-1 renal. Put plainly: NCI anticancer screen, dose series, 48 h.
Regarding `O=S1(=O)c2cnccc2NC(=NCc2cccc3ccccc23)N1c1ccccc1`, the TGI was above 100 µM.

The molecule `C[C@@]12C=CC3C/C(=N\C(N)=S)C=C(CCCC4OCCO4)[C@]3(CC1)C2` (stereo not given in full) had a TGI of 69.9 µM.

Take `CCCCCC(=O)Nc1n[nH]nc1C(N)=O`: the TGI was above 100 µM.

With `NC(=O)C(Nc1c(Cl)cccc1Cl)c1cc2cc(Br)ccc2nc1Cl` (stereo not given), the TGI was above 100 µM.

For `COc1ccc(Br)c2c1CC(C(=O)O)CC2` (stereo not given), the TGI is above 100 µM.

In turn, `C/C(=N\N)C(CN(C)C)C(c1ccccc1)c1c(O)c2ccccc2oc1=O` (stereo not given) returned a TGI above 100 µM.

Turning to `COc1ccc(/C=C2/C(C)=NN(c3cccc(Cl)c3)/C2=N/c2nc3ccccc3s2)cc1`, the TGI amounted to 86.6 µM.

Turning to `Fc1cc(C2=C[C@H](c3ccc(Cl)cc3)NC(=S)N2)c(Cl)cc1Cl`, the TGI was above 100 µM.

On to `CCCCc1ccc(Nc2nc(Cl)c3c(ncn3COCCOC(C)=O)n2)cc1`, for which the TGI worked out at 60.1 µM.

A further test deals with MDA-MB-231 breast. Nature of the test: NCI anticancer screen, dose series, 48 h.
Molecule `O=S1(=O)c2cnccc2NC(=NCc2cccc3ccccc23)N1c1ccccc1` yielded a TGI above 100 µM.

In the case of `C[C@@]12C=CC3C/C(=N\C(N)=S)C=C(CCCC4OCCO4)[C@]3(CC1)C2` (stereo not given in full), the TGI stood at 43.1 µM.

For the molecule `CCCCCC(=O)Nc1n[nH]nc1C(N)=O`, the TGI was above 100 µM.

`NC(=O)C(Nc1c(Cl)cccc1Cl)c1cc2cc(Br)ccc2nc1Cl` (stereo not given) showed a TGI above 100 µM.

In turn, `COc1ccc(Br)c2c1CC(C(=O)O)CC2` (stereo not given) yielded a TGI above 100 µM.

The molecule `C/C(=N\N)C(CN(C)C)C(c1ccccc1)c1c(O)c2ccccc2oc1=O` (stereo not given) displayed a TGI above 100 µM.

Molecule `COc1ccc(/C=C2/C(C)=NN(c3cccc(Cl)c3)/C2=N/c2nc3ccccc3s2)cc1` displayed a TGI of 67.5 µM.

For `Fc1cc(C2=C[C@H](c3ccc(Cl)cc3)NC(=S)N2)c(Cl)cc1Cl`, the TGI worked out at 88.7 µM.

In turn, `CCCCc1ccc(Nc2nc(Cl)c3c(ncn3COCCOC(C)=O)n2)cc1` came in with a TGI of 33.4 µM.

A further test has as its system OVCAR-8 ovarian. Nature of the test: NCI anticancer screen, dose series, 48 h.
`O=S1(=O)c2cnccc2NC(=NCc2cccc3ccccc23)N1c1ccccc1` had a TGI above 100 µM.

For the molecule `C[C@@]12C=CC3C/C(=N\C(N)=S)C=C(CCCC4OCCO4)[C@]3(CC1)C2` (stereo not given in full), the TGI came to 68.1 µM.

`CCCCCC(=O)Nc1n[nH]nc1C(N)=O` registered a TGI above 100 µM.

In turn, `NC(=O)C(Nc1c(Cl)cccc1Cl)c1cc2cc(Br)ccc2nc1Cl` (stereo not given) displayed a TGI above 100 µM.

`COc1ccc(Br)c2c1CC(C(=O)O)CC2` (stereo not given) gave a TGI above 100 µM.

Turning to `C/C(=N\N)C(CN(C)C)C(c1ccccc1)c1c(O)c2ccccc2oc1=O` (stereo not given), the TGI is above 100 µM.

On to `COc1ccc(/C=C2/C(C)=NN(c3cccc(Cl)c3)/C2=N/c2nc3ccccc3s2)cc1`, for which the TGI stood at 49.3 µM.

The molecule `Fc1cc(C2=C[C@H](c3ccc(Cl)cc3)NC(=S)N2)c(Cl)cc1Cl` displayed a TGI above 100 µM.

`CCCCc1ccc(Nc2nc(Cl)c3c(ncn3COCCOC(C)=O)n2)cc1` showed a TGI of 33.6 µM.

The values are drawn from PubChem BioAssay (NCI).
